Reference: paper PMC9592989, “Determination of (-)-epigallocatechin-3-gallate octaacetate and its metabolites in plasma of rats for pharmacokinetic study by ultra-performance-liquid-chromatography coupled to quadrupole-time-of-flight-mass-spectrometry” (Frontiers in Pharmacology, 2022)
Like-named read-outs stand apart in the source and are kept apart here.

Legend:
[1] = Pharmacokinetic study in SD rats after intragastric administration of pro-EGCG, plasma by UPLC-Qtof-MS; type: in vivo, Sprague Dawley (SD) rats
Description: Fourteen to 16-weeks old female Sprague Dawley (SD) rats at reproductive age and of approximately 250 g were grouped in different cages in an air-conditioned room (22 ± 2°C) with a 12-h controlled lighting cycle. The SD rats were fed with standard chow and given free access to water. They were acclimatized for 1 week before the experiment. The study was approved by the Animal Experimentation Ethics Committee of the Chinese University of Hong Kong and was performed according to institutional guidelines. For validation studies, the rats were fasted overnight and then anesthetized by inhaling isoflurane (Baxter, IL, United States) for 15 min. Blank blood samples, approximately 10 mL, were withdrawn by cardiac puncture after experiments and before sacrifice.
Venous blood drawn from the SD rats was stored in an EDTA tube in an […] ice bath for not more than 10 min and centrifuged at 1780 × g and […] for 10 min. Plasma was aliquoted in 50 μL, mixed with 6 µL formic acid, and either immediately processed or stored at -80°C.
The extraction procedure was modified from our previous study ([Chu et al., 2014]). A plasma aliquot was spiked with 2.5 µL of 100 μg/mL pro-EGCG internal standard and mixed with 300 µL of isopropanol and 3 µL of formic acid. After vortexing for 2 min and sonicating for 2 min, 1 mL of MTBE and 150 µL magnesium chloride 0.043% solution were added. The mixture was again vortexed for 2 min and sonicated for 2 min. After settling, the mixture was centrifuged at 2,624 × g and 4°C for 10 min. The supernatant was pipetted into a glass tube by a glass Pasteur pipette and avoided touching the protein layer. The remaining aqueous layer was re-extracted by isopropanol and MTBE as described above. The supernatant was mixed with the previous extract and purged to dryness by nitrogen. The dried residues were dissolved in 100 µL methanol, sonicated for 30 s, vortexed for 2 min, and centrifuged at 3,634 × g at 4°C for 15 min. The supernatant was transferred to an HPLC vial for LCMS analysis. Methanol can completely dissolve pro-EGCG and precipitate protein matrix from the residues.
Plasma extract was analyzed by Agilent 6,540 Liquid chromatography-electrospray ionization quadrupole-TOF Mass Spectrometer. The extract, 8 μL, was separated by Waters Cortex UPLC C18 1.6 µm × 2.1 × 150 mm column (Waters, Milford, MA). Mobile phase A was 0.1 mM ammonia solution/acetonitrile/methanol/formic acid [80:15:5:0.2 (v/v/v/v)] and mobile phase B acetonitrile/methanol/0.1 mM ammonia solution/formic acid [92.5:5:2.5:0.2 (v/v/v/v)]. The column temperature was 40°C and the flow rate was 0.4 mL/min. The binary elusion program: 20% B, 0–2 min; 20%–60% B, 2–10 min; 60%–100% B, 10–11 min; 100% B, 11–18 min; 100%–20% B, 18–19 min; 20% B, 19–24 min. Positive electrospray ionization was used with capillary voltage (VCap) at 4500V, nozzle voltage at 1000 V, the gas temperature at 300°C, drying gas at 8 L/min, nebulizer pressure at 40 psi, sheath gas temperature at 300°C, and sheath gas flow at 11 L/min. The acquisition range was 100–1,000 m/z. The exact mass method was used for quantification at the range of 812.2043 ± 0.06 m/z for pro-EGCG ammonium adduct [M + NH4]^+ and 803.2039 ± 0.06 m/z for internal standard pro-EGCG-1–13C8 hydrogen adduct [M + H]^+. The mass was locked by continuous infusion of calibration standards with lock mass calibrated at 922.0 m/z.
For analysis of the metabolites, the predicted masses of pro-EGCG metabolites as calculated from de-acetylation, glucuronidation, sulphation, and methylation were scanned from the chromatogram of the first-hour plasma samples after intragastric administration of pro-EGCG. For a particular metabolite, the predicted target molecular mass of the metabolite was submitted for MS/MS analysis within ± 1 min around the retention time of the peak. The chromatography and mass spectrum conditions were the same as above. The collision energy was set for […] and the daughter ion scan ranged from 100–1,000 Da. […]

[2] = system: plasma vascular endothelial growth factor (VEGF); parameters: method as in Wang et al., 2013; conditions: mouse model with induced endometriotic lesions; ref Wang et al., 2013; cited from earlier work
[3] = parameters: method as in Lambert et al., 2006; conditions: intragastric administration, CF-1 mice; ref Lambert et al., 2006; cited from earlier work
[4] = system: proteasome activity of breast cancer cells, MDA-MB231; parameters: method as in Landis-Piwowar et al., 2007; conditions: animal models, relative to EGCG, ref Landis-Piwowar et al., 2007; cited from earlier work
[5] = Stability of pro-EGCG in processed plasma extracts on storage; type: physicochemical; conditions: 5.0 μg/mL pro-EGCG of processed samples stored at 4°C for 7 days and 4 weeks at -20°C
Description: Three processed plasma samples extracted at 5.0 μg/mL were stored at 4°C for a week. They were tested at t = 0 and 7 days. This duration was selected to ensure the test period is sufficient to cover a batch of samples for analysis in the auto-sampler ([Brodie and Hill, 2002]; [Department of Medical Sciences Ministry of Public Health, 2022]). […] This test period covered common the maximum storage period pending for batches of analysis.

[6] = system: induced skin tumors; parameters: method as in Chiou et al., 2013; conditions: mice with induced skin tumors; ref Chiou et al., 2013; cited from earlier work
[7] = system: human lung cancer H460 cells; parameters: method as in Heyza et al., 2018; conditions: compared with EGCG treatment, ref Heyza et al., 2018; cited from earlier work
[8] = Stability of pro-EGCG in rat plasma (room temperature; esterase inhibitors; formic acid); type: in vitro ADME; conditions: for stability of pro-EGCG in plasma at room temperature: 50 μg/mL pro-EGCG spiked in rat plasma, 0-60 min
Description: The stability of pro-EGCG in plasma at room temperature was assessed by spiking 50.0 μg/mL pro-EGCG into three sets of 50 µL plasma samples. Each plasma sample was spiked with 5.0 μg/mL pro-EGCG internal standard at time points 0, 3, 5, 10, 20, 30, and 60 min before snap-frozen by liquid nitrogen. The samples were processed as described above and analyzed by UPLC‐Qtof-MS.
We also evaluated the stabilizing effect of different esterase inhibitors. The inhibitors, 4-(2-aminoethyl-)benzenesulponylfluoride HCL (penfabloc), bis-nitophenyl phosphate (BNPP), N-α-tosyl-L-lysine chloromethylketone HCL (TLCK), and dichlorvos, at plasma level of 30 mM; a mixture of sodium fluoride–potassium oxalate (NaF-KO) at plasma level of 10.0 mg/mL and 8.0 mg/mL; and 6 µL formic acid in 50 µL fresh rat plasma sample were used. Subsequently, pro-EGCG was spiked into the blank rat plasma at 5.0 μg/mL in an ice bath for 10 min. An internal standard, 5.0 μg/mL, was added to the plasma samples and snap-frozen by liquid nitrogen at the 10th minute. Three sets of samples were tested. The samples were processed as above and analyzed by UPLC‐Qtof-MS.
The stability of pro-EGCG in plasma with formic acid was assessed by mixing 6 µL of formic acid with 5.0 μg/mL pro-EGCG in 50 µL plasma and stored in an ice bath. Each three plasma samples were spiked with 5.0 μg/mL pro-EGCG internal standard and snap-frozen by liquid nitrogen at time points 0, 10, 15, 20, 30, 45, and 60 min. The samples were analyzed as described. Stability (%)=calculated concentration of pro−EGCG under different treatment /actual spiked concentration×100%

[9] = system: induced prostate cancer; parameters: method as in Lee et al., 2008; conditions: nude mice with induced prostate cancer; relative to EGCG; ref Lee et al., 2008; cited from earlier work
[10] = female, Sprague-Dawley, rat, plasma, po, 50 mg/kg, proposed metabolite in rat plasma after intragastric 50 mg/kg pro-EGCG, no standards, not confirmed, read-out: Tmax of pro-EGCG metabolite
[11] = female, Sprague-Dawley, rat, po, SD rats (n = 3), plasma, within 24 h after intragastric 50 mg/kg pro-EGCG, Mean ± SE

CC(=O)Oc1cc([C@H]2Oc3cc(O)cc(O)c3C[C@H]2OC(=O)c2cc(O)c(O)c(O)c2)cc(O)c1OC(C)=O [EGCG-2Ac, (-)-epigallocatechin-gallate (EGCG) diacetates]
Tmax [1, 10]: ~1 h

CC(=O)Oc1cc([C@H]2Oc3cc(O)cc(O)c3C[C@H]2OC(=O)c2cc(O)c(O)c(O)c2)cc(OC(C)=O)c1OC(C)=O [EGCG-3Ac, EGCG triacetates]
Tmax [1, 10]: ~5 h | degradation of EGCG-3Ac (production rate of EGCG-2Ac) ([1]; rat plasma profile after intragastric 50 mg/kg pro-EGCG, peak ratio to internal standard): about 1.25 × 10^−5 EGCG-3Ac/IS/hr

CC(=O)Oc1cc(OC(C)=O)c2c(c1)O[C@H](c1cc(OC(C)=O)c(OC(C)=O)c(OC(C)=O)c1)[C@H](OC(=O)c1cc(OC(C)=O)c(OC(C)=O)c(OC(C)=O)c1)C2 [pro-EGCG, (-)-Epigallocatechin-gallate octaacetate]
plasma VEGF concentration relative to the concentration treated by EGCG [2]: two-thirds | bioavailability of EGCG compared with EGCG administered at equimolar doses [3]: higher | potency in inhibiting proteasome activity compared to the equivalent amount of EGCG [4]: more than two-fold | Pro-EGCG remained [5]: above 95% | average number of tumors per mouse [6]: three folds lower | tumor incidences [6]: three folds lower | half-maximal inhibitory concentration (IC50) of clonogenicity [7]: slightly lower | stability of pro-EGCG in plasma at room temperature [8]: rapidly degraded | stability of pro-EGCG in plasma at room temperature ([8]; listed as Pro-EGCG): unstable | pro-EGCG remaining ([8]; formic acid treated plasma (6 µL in 50 µL), 5.0 μg/mL, 10 min in an ice bath, Mean ± SD, n = 3): 103 ± 3.6% | pro-EGCG left ([8]; other esterase inhibitors treated plasma (TLCK, BNPP, dichlorvos, pefabloc 30 mM; NaF-KO), 5.0 μg/mL, 10 min in an ice bath): less than 22% | tumor volume smaller after pro-EGCG treatment than EGCG treatment [9]: 40.1% | Cmax ([1]; female, Sprague-Dawley, oral, 50 mg/kg, non-compartmental analysis, rat plasma (n = 3) over 24 h): 67 ± 0.04 ng/mL | Tmax ([1]; female, Sprague-Dawley, rat, plasma, po, 50 mg/kg, SD rats (n = 3), plasma, within 24 h after intragastric 50 mg/kg pro-EGCG, Mean ± SE, read-out: Tmax): 1.33 ± 0.33 h | Tmax ([1]; female, Sprague-Dawley, rat, plasma, po, 50 mg/kg, oral administration, SD rats, 50 mg/kg pro-EGCG, read-out: time-of-maximum-concentration (Tmax)): 1.33 h | AUC ([1]; female, Sprague-Dawley, rat, plasma, oral administration, SD rats, 50 mg/kg pro-EGCG, read-out: area-under-curve (AUC)): 200 ± 50 ng·h/mL | Cmax [1, 11]: 67 ± 40 ng/mL | MRT [1, 11]: 12.9 ± 6.4 h | k el ([1]; female, Sprague-Dawley, rat, po, SD rats (n = 3), plasma, within 24 h after intragastric 50 mg/kg pro-EGCG, Mean ± SE, read-out: Lambda Z (converted)): 5.56e-05 s⁻¹ | elimination-rate ([1]; oral administration, SD rats, 50 mg/kg pro-EGCG): 0.20 ± 0.11 h⁻¹
